According to patent US10077239B2, “Crystalline forms of a hepatitis B antiviral agent” (NOVIRA THERAPEUTICS, INC, priority 2015, dated 2018):
“Also recorded” adds a separate entry of the source. Like-named read-outs stand apart in the source and are kept apart here.

Tests used:
Type in all cases: physicochemical
[1] = Solubility of the crystalline forms
[2] = Hygroscopicity by dynamic vapor sorption (DVS); conditions: for Hydrophilicity / hygroscopicity rating from DVS / Hysteresis between initial and final state, DVS: 37° C.; for Water (moisture) uptake, DVS: from 0% to 100% RH at 37° C.
Protocol: DVS The temperature and RH are pre-set according to the initial temperature and RH. Method at 37° C.: • Equilibrating 20 min at 50% • Set from 50% to 0% • Equilibrating 20 min at 0% RH • Set from 0% to 100% by step of 10% RH (50% RH per hour) • 3 hours at 100% RH • From 100% RH to 0% RH by step of 10% RH (−50% RH per hour) • Equilibrating 20 min at 0% RH • Set from 0% to 50% • Equilibrating 20 min at 50% RH Particle Size Distribution (Malvern)

[3] = Particle size distribution (Malvern laser diffraction); conditions: for Particle size D10 after sonication / Particle size D50 after sonication / Particle size D90 after sonication: after ultrasound treatment (40 seconds); for Particle size D10 / Particle size D50 / Particle size D90: without ultrasound treatment
Protocol: • Equilibrating 20 min at 50% • Set from 50% to 0% • Equilibrating 20 min at 0% RH • Set from 0% to 100% by step of 10% RH (50% RH per hour) • 3 hours at 100% RH • From 100% RH to 0% RH by step of 10% RH (−50% RH per hour) • Equilibrating 20 min at 0% RH • Set from 0% to 50% • Equilibrating 20 min at 50% RH Particle Size Distribution (Malvern) A total of 3 measurements by batch were made to ensure repeatable and reproducible results. • Dispersant: Silicon oil. A good dispersion is observed in this media and Compound (1) is not soluble in silicon oil. • Stirring: 2000 rpm • lens: 300RF • Analysis model: polydisperse • Presentation code: 3OAE • Number of measurement sweeps: 5000 • Density: 1.000 g·cm^3 • With or without stage of ultrasound

pH solubility profile = test: pH solubility profile
[4] = Thermal analysis (DSC/TGA/hot stage): decomposition
Protocol: Thermal Analysis (DSC/TGA/Hot Stage) An accurate amount of compound (mg scale) is set up in 40 μL Al crucible with perforated lids. The heating rate is 20° C./min in a nitrogen gas flow. The heating ranged from 30 to 400° C.

[5] = Stability under simulated storage conditions: XRPD under temperature and relative humidity; conditions: for XRPD under RH: phase transition: 10% to 80% RH at 25° C.
Protocol: Stability Under Simulated Storage Conditions: XRPD The stability of crystalline Forms I and XVI was characterized by XRPD under temperature and relative humidity conditions that stimulate potential storage conditions. XRPD XRPD was performed on a PHILIPS PANalytical, X'Pert Pro. diffractometer The experimental conditions are the following: • Configuration Bragg-Brentano: θ−θ • Source: Cu with Kα1 at λ=1.5406 Å. • The power supply works at 45 kV and 40 mA. • Detector: PSD X'Celerator in scanning mode • Sample temperature: room temperature • Angular variation: from 2θ=3° to 45° • Step size [° 2θ]: 0.008 • Scan step time (in s): 13 39 • Duration: 20 min according to the diffraction intensity A few mg of sample were prepared on a silicon plate without any special treatment other than a slight pressure to obtain a flat and homogeneous surface for reproducible and repeatable results.

[6] = as above; conditions: for XRPD under temperature: phase transition: temperature increased from 25° C. to 160° C.

Compound | Hydrophilicity / hygroscopicity rating from DVS [2] | Hysteresis between initial and final state, DVS [2] | Water (moisture) uptake, DVS [2] [%] | Particle size D10 after sonication [3] [μm] | Particle size D50 after sonication [3] [μm] | Particle size D90 after sonication [3] [μm] | Particle size D10 [3] [μm] | Particle size D50 [3] [μm] | Particle size D90 [3] [μm] | pH solubility profile (pH solubility profile) | Decomposition (degradation) temperature [4] | XRPD under RH: phase transition [5] | XRPD under temperature: phase transition [6] | further results
O=C(Nc1cc(F)c(F)c(F)c1)c1ccc(F)c(S(=O)(=O)N2CCC(O)CC2)c1 [Compound (1), 4-fluoro-3-((4-hydroxypiperidin-1-yl)sulfonyl)-N-(3,4,5-trifluorophenyl)benzamide] | – | – | – | – | – | – | – | – | – | – | – | – | – | Solubility in silicon oil ([1]; silicon oil, dispersant of the particle size measurement): not soluble
O=C(Nc1cc(F)c(F)c(F)c1)c1ccc(F)c(S(=O)(=O)N2CCC(O)CC2)c1 [Form I, 4-fluoro-3-((4-hydroxypiperidin-1-yl)sulfonyl)-N-(3,4,5-trifluorophenyl)benzamide] | slightly hydrophilic; also recorded: low hydrophilicity | No hysteresis | 1.5 | 4.7 | 14.2 | 66.9 | 5.8 | 69.1 | 342.6 | Slightly soluble | above 300 °C | No transition phase from 10% | sensitive to the temperature | Hydrophilicity / hygroscopicity rating from DVS ([2]; listed as FI): 100% ⋄ slightly hydrophilic.; solubility ([1]; organic solvent or mixture, MTBE, 25° C., read-out: Solubility in MTBE): < 2000 µg/mL; solubility ([1]; water, 25° C., read-out: Solubility in water): < 2000 µg/mL; Particle size D10 after sonication ([3]; listed as FI): D10 = 4.7 μm; Particle size D50 after sonication ([3]; listed as FI): D50 = 14.2 μm; Particle size D90 after sonication ([3]; listed as FI): D90 = 66.9 μm; Decomposition (degradation) temperature ([4]; listed as FI): Decomposition >300 °C; Impact of relative humidity on the crystalline phase (XRPD) ([5]; RH 7-30-90% at 25 or 40° C.): no impact; Temperature from which the phase transition starts (XRPD) ([6]; heating from 25° C. to 160° C.): 100 °C; Temperature at which the phase transition is complete (XRPD) ([6]; heating from 25° C. to 160° C., not reversible): 160 °C; XRPD under temperature: phase transition ([6]; listed as FI): Complete transition towards
O=C(Nc1cc(F)c(F)c(F)c1)c1ccc(F)c(S(=O)(=O)N2CCC(O)CC2)c1 [Form XVI, 4-fluoro-3-((4-hydroxypiperidin-1-yl)sulfonyl)-N-(3,4,5-trifluorophenyl)benzamide] | slightly hydrophilic; also recorded: low hydrophilicity | No hysteresis | 0.8 | 4.2 | 20.0 | 37.5 | 9.8 | 23.7 | 45.8 | Slightly soluble | above 300 °C | No transition phase from 10% | no phase transition | Hydrophilicity / hygroscopicity rating from DVS ([2]; listed as FXVI): 100% ⋄ slightly hydrophilic.; Water (moisture) uptake, DVS ([2]; listed as FXVI): Uptake of 0.8% from 0 to; Solubility in MTBE ([1]; MTBE, 25° C.): In MTBE <2 g/L at 25 °C; Solubility in water ([1]; water, 25° C.): In Water <2 g/L at 25 °C; Particle size D10 after sonication ([3]; listed as FXVI): D10 = 4.2 μm; Particle size D50 after sonication ([3]; listed as FXVI): D50 = 20.0 μm; Particle size D90 after sonication ([3]; listed as FXVI): D90 = 37.5 μm; Decomposition (degradation) temperature ([4]; listed as FXVI): Decomposition >300 °C; Impact of relative humidity on the crystalline phase (XRPD) ([5]; RH 7-30-90% at 25 or 45° C.): no impact; Stability of the crystalline form with respect to temperature and relative humidity ([5]; XRPD monitoring at higher temperatures and varying humidity): high stability; also recorded: maintains its crystallinity; also recorded: highly stable; XRPD under temperature: phase transition ([6]; listed as FXVI): No transition phase until
